Several values for one entry are separate records, joined by “and”; a condition that tells them apart may be missing. Equal values may be shown once. Inconclusive results and toxic doses are left out. How the source made its calls: active means survival T/C of 150% or more; inactive means T/C below 125% in these data. Non-standard residues stand in square brackets, D forms with d. Residues, ends and D or L forms follow the SMILES beside them. ξ: configuration not given here. *: point of attachment. ξF = NC(Cc1ccccc1)C(=O)O; Cbz = O=C(OCc1ccccc1)*
Tested on: CD2F1 mice, L1210 leukemia ip, survival T/C
Assay: NCI In Vivo Anticancer Drug Screen. Data for tumor model L1210 Leukemia (intraperitoneal) in CD2F1 (CDF1) mice
Conditions: higher = longer survival
In short: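 Transplantable tumor in mice; compound-treated vs vehicle-treated groups. Read-out = treated/control ratio of the measured endpoint.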

[1] = endpoint: mean survival time, dose: 100.0 mg/kg/injection, schedule: Q01DX009 (ip), vehicle: saline with Tween-80
[2] = endpoint: mean survival time, dose: 200.0 mg/kg/injection, schedule: Q01DX009 (ip), vehicle: saline with Tween-80
[3] = endpoint: mean survival time, dose: 400.0 mg/kg/injection, schedule: Q01DX009 (ip), vehicle: saline with Tween-80
[4] = endpoint: mean survival time, dose: 50.0 mg/kg/injection, schedule: Q04DX002 (ip), vehicle: saline with Tween-80
[5] = endpoint: mean survival time, dose: 100.0 mg/kg/injection, schedule: Q01DX001 (ip), vehicle: saline with Tween-80
[6] = endpoint: mean survival time, dose: 100.0 mg/kg/injection, schedule: Q04DX002 (ip), vehicle: saline with Tween-80
[7] = endpoint: mean survival time, dose: 200.0 mg/kg/injection, schedule: Q01DX001 (ip), vehicle: saline with Tween-80
[8] = endpoint: mean survival time, dose: 200.0 mg/kg/injection, schedule: Q04DX002 (ip), vehicle: saline with Tween-80
[9] = endpoint: mean survival time, dose: 25.0 mg/kg/injection, schedule: Q01DX009 (ip), vehicle: saline
[10] = endpoint: mean survival time, dose: 100.0 mg/kg/injection, schedule: Q01DX009 (ip), vehicle: saline
[11] = endpoint: mean survival time, dose: 12.5 mg/kg/injection, schedule: Q04DX002 (ip), vehicle: saline with Tween-80
[12] = endpoint: mean survival time, dose: 25.0 mg/kg/injection, schedule: Q01DX001 (ip), vehicle: saline with Tween-80
[13] = endpoint: mean survival time, dose: 25.0 mg/kg/injection, schedule: Q04DX002 (ip), vehicle: saline with Tween-80
[14] = endpoint: mean survival time, dose: 50.0 mg/kg/injection, schedule: Q01DX001 (ip), vehicle: saline with Tween-80
[15] = endpoint: mean survival time, dose: 400.0 mg/kg/injection, schedule: Q01DX001 (ip), vehicle: saline with Tween-80
[16] = endpoint: mean survival time, dose: 100.0 mg/kg/injection, schedule: Q04DX003 (ip), vehicle: saline with Tween-80
[17] = endpoint: mean survival time, dose: 200.0 mg/kg/injection, schedule: Q04DX003 (ip), vehicle: saline with Tween-80

Measured: T/C

COC(=O)NC1C(C)OC(OC2C/C=C(/C)C3C=CC4C(OC5CC(OC6CC(O)C(OC7CC(O)C(OC)C(C)O7)C(C)O6)C(O)C(C)O5)C(C)CC(C)C4C3(C)/C(O)=C3\C(=O)OC4(CC(C)C(CO)=CC4/C=C\2C)C3=O)CC1(C)[N+](=O)[O-] (stereo not drawn)
inactive: endpoint: median survival time, dose: 12.5 mg/kg/injection, schedule: Q01DX009 (ip), vehicle: Klucel (hydroxypropylcellulose) (HPC) 102 % of control | endpoint: median survival time, dose: 25.0 mg/kg/injection, schedule: Q01DX009 (ip), vehicle: Klucel (hydroxypropylcellulose) (HPC) 109 % of control | endpoint: median survival time, dose: 50.0 mg/kg/injection, schedule: Q01DX009 (ip), vehicle: Klucel (hydroxypropylcellulose) (HPC) 102 % of control | endpoint: median survival time, dose: 100.0 mg/kg/injection, schedule: Q01DX009 (ip), vehicle: Klucel (hydroxypropylcellulose) (HPC) 103 % of control

COc1cccc(OC)c1C(c1c(OC)cccc1OC)c1c(OC)cccc1OC
inactive: [1] 98 % of control | [2] 103 % of control | [3] 102 % of control

Cn1c(=O)c2[nH]c(-c3cccnc3)nc2n(C)c1=O
inactive: endpoint: mean survival time, dose: 12.5 mg/kg/injection, schedule: Q01DX005 (ip), vehicle: distilled water + Tween-80 92 % of control | endpoint: mean survival time, dose: 25.0 mg/kg/injection, schedule: Q01DX005 (ip), vehicle: distilled water + Tween-80 98 % of control | endpoint: mean survival time, dose: 50.0 mg/kg/injection, schedule: Q01DX005 (ip), vehicle: distilled water + Tween-80 98 % of control | endpoint: mean survival time, dose: 100.0 mg/kg/injection, schedule: Q01DX005 (ip), vehicle: distilled water + Tween-80 98 % of control | endpoint: mean survival time, dose: 200.0 mg/kg/injection, schedule: Q01DX005 (ip), vehicle: distilled water + Tween-80 116 % of control

N#CCCCCCCn1cnc2c(N)ncnc21
inactive: [4] 102 % of control | [5] 97 % of control | [6] 105 % of control | [7] 97 % of control | [8] 90 % of control

CC(C)(C)CC(C)(C)c1ccc(OCCOc2ccccc2N)cc1
inactive: [1] 88 % of control | [2] 88 % of control | [3] 94 % of control

O=C1C(=O)c2ccccc2C(O)=C1C(C1=C(O)c2ccccc2C(=O)C1=O)c1ccc(C(C2=C(O)c3ccccc3C(=O)C2=O)C2=C(O)c3ccccc3C(=O)C2=O)cc1
inactive: endpoint: mean survival time, dose: 100.0 mg/kg/injection, schedule: Q01DX009 (ip), vehicle: saline sonified 96 % of control | endpoint: mean survival time, dose: 200.0 mg/kg/injection, schedule: Q01DX009 (ip), vehicle: saline sonified 97 % of control | endpoint: mean survival time, dose: 400.0 mg/kg/injection, schedule: Q01DX009 (ip), vehicle: saline sonified 108 % of control

CC(C)(C)c1ccc(-n2cnc3c(=O)[nH]c(N)nc32)cc1
inactive: [4] 86 % of control | [6] 90 % of control

Oc1c(Br)cc(Br)cc1/C=N/c1nc(-c2ccccc2)cs1.Oc1c(Br)cc(Br)cc1/C=N/c1nc(-c2ccccc2)cs1.[Co]
inactive: endpoint: mean survival time, dose: 25.0 mg/kg/injection, schedule: Q01DX001 (ip), vehicle: saline 100 % of control | endpoint: mean survival time, dose: 50.0 mg/kg/injection, schedule: Q01DX001 (ip), vehicle: saline 100 % of control | endpoint: mean survival time, dose: 100.0 mg/kg/injection, schedule: Q01DX001 (ip), vehicle: saline 87 % of control

Cc1cc(=O)n2c3c(c4c(cc13)c(CN(C)C)cc(=O)n4C)OC2
inactive: endpoint: median survival time, dose: 6.0 mg/kg/injection, schedule: Q01DX009 (ip), vehicle: saline with Tween-80 110 % of control | endpoint: median survival time, dose: 12.0 mg/kg/injection, schedule: Q01DX009 (ip), vehicle: saline with Tween-80 101 % of control | endpoint: median survival time, dose: 12.5 mg/kg/injection, schedule: Q01DX009 (ip), vehicle: saline with Tween-80 100 % of control | endpoint: median survival time, dose: 25.0 mg/kg/injection, schedule: Q01DX009 (ip), vehicle: saline with Tween-80 119 % of control and 110 % of control | endpoint: median survival time, dose: 100.0 mg/kg/injection, schedule: Q01DX009 (ip), vehicle: saline with Tween-80 97 % of control

C=C(NC(=O)C(=C)NC(=O)c1csc(C2=NC3c4csc(n4)C4NC(=O)c5csc(n5)C(C(C)(O)C(C)O)NC(=O)C5CSC(=N5)/C(=C/C)NC(=O)C(C(C)O)NC(=O)c5csc(n5)C3(CC2)NC(=O)C(C)NC(=O)C(=C)NC(=O)C(=C)NC(=O)C(C(C)C)NC2C=Cc3c(C(C)O)cc(nc3C2O)C(=O)OC4C)n1)C(N)=O (stereo not drawn)
inactive: endpoint: mean survival time, dose: 3.12 mg/kg/injection, schedule: Q01DX009 (ip), vehicle: saline 107 % of control | endpoint: mean survival time, dose: 6.25 mg/kg/injection, schedule: Q01DX009 (ip), vehicle: saline 113 % of control | endpoint: mean survival time, dose: 12.5 mg/kg/injection, schedule: Q01DX009 (ip), vehicle: saline 124 % of control and 108 % of control | [9] 113 % of control and 115 % of control | endpoint: mean survival time, dose: 50.0 mg/kg/injection, schedule: Q01DX009 (ip), vehicle: saline 120 % of control | [10] 113 % of control and 124 % of control | endpoint: mean survival time, dose: 200.0 mg/kg/injection, schedule: Q01DX009 (ip), vehicle: saline 124 % of control and 108 % of control

CCCC(C(CC)CN(C)C)N(C)C (stereo not drawn)
inactive: endpoint: mean survival time, dose: 3.12 mg/kg/injection, schedule: Q04DX002 (ip), vehicle: saline with Tween-80 113 % of control | endpoint: mean survival time, dose: 6.25 mg/kg/injection, schedule: Q04DX002 (ip), vehicle: saline with Tween-80 106 % of control | [11] 107 % of control | [12] 120 % of control | [13] 103 % of control | [14] 100 % of control | [5] 100 % of control

CCOC(=O)c1sc(=S)[nH]c1C
inactive: [2] 89 % of control | [3] 87 % of control

C1CC2(CCC13CS3)CS2 (stereo not drawn)
inactive: [4] 98 % of control | [6] 98 % of control | [8] 95 % of control

Cc1ccccc1[As](c1ccccc1C)c1ccccc1C
inactive: [9] 86 % of control | [10] 86 % of control

O=C(NCC#CCN1CCCC1)Nc1cccc(Cl)c1
inactive: [11] 102 % of control | [12] 92 % of control | [13] 95 % of control | [14] 106 % of control | [4] 87 % of control | [5] 92 % of control and 93 % of control | [6] 98 % of control

Cc1ccc(S(=O)(=O)OCC(O)C(O)C(O)C(C)O)cc1 (stereo not drawn)
inactive: [5] 98 % of control | [7] 98 % of control | [15] 102 % of control

CC(CCC1OC2CC3C4CCC5CC(OC(=O)c6ccccc6)CCC5(C)C4CCC3(C)C2C1C)COC(=O)c1ccccc1 (stereo not drawn)
inactive: [6] 90 % of control | [8] 94 % of control | endpoint: mean survival time, dose: 400.0 mg/kg/injection, schedule: Q04DX002 (ip), vehicle: saline with Tween-80 86 % of control

Cc1ccc(NC(=O)C2CCC(C)(C(=O)O)C2(C)C)cc1 (stereo not drawn)
inactive: [16] 96 % of control | [17] 91 % of control

CN(CCC#N)CCC#N
inactive: endpoint: mean survival time, dose: 100.0 mg/kg/injection, schedule: Q04DX003 (ip), vehicle: saline 101 % of control | endpoint: mean survival time, dose: 200.0 mg/kg/injection, schedule: Q04DX003 (ip), vehicle: saline 96 % of control | endpoint: mean survival time, dose: 400.0 mg/kg/injection, schedule: Q04DX003 (ip), vehicle: saline 101 % of control

CC1CCC(O)C2(C)CC(O)C(C(C)C(=O)O)CC12 (stereo not drawn)
inactive: [5] 92 % of control | [7] 92 % of control | [15] 88 % of control

O=C(CNC(=O)OCc1ccccc1)NCC(=O)NC(Cc1ccccc1)C(=O)O (stereo not drawn) (Cbz-Gly-Gly-[ξF]-OH)
inactive: [16] 96 % of control | [17] 93 % of control | endpoint: mean survival time, dose: 400.0 mg/kg/injection, schedule: Q04DX003 (ip), vehicle: saline with Tween-80 93 % of control

Reference: PubChem BioAssay AID256 (DTP/NCI, 2004)
